According to the supplement of paper PMC10307832:

Assays:
Test in all cases: relative viability (nuclei count vs DMSO), 5 days (fraction); higher = more cells survive
Fedratinib + Pemetrexed = compound: Cc1cnc(Nc2ccc(OCCN3CCCC3)cc2)nc1Nc1cccc(S(=O)(=O)NC(C)(C)C)c1 [Fedratinib] + Nc1nc2[nH]cc(CCc3ccc(C(=O)N[C@@H](CCC(=O)O)C(=O)O)cc3)c2c(=O)[nH]1 [Pemetrexed] (partner 0.2 µM)
Method in brief: (§1)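 A single step with final 0.05% Triton X-100, 1% formaldehyde and 1 ug/ml Hoechst fixed the cells and stained nuclei 5 days after treatment. Lung cancer cell lines in 1536-well plates had been treated by pin tool the day after seeding with one drug alone or a fixed anchor-drug dose plus five library-drug doses (not always all listed) in √10 steps, and nuclei were counted on 4× images. Relative viability is the ratio of nuclei in treated wells to nuclei in vehicle wells, taken as the median of duplicate plates.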

Fedratinib + Pictilisib = compound: Cc1cnc(Nc2ccc(OCCN3CCCC3)cc2)nc1Nc1cccc(S(=O)(=O)NC(C)(C)C)c1 [Fedratinib] + CS(=O)(=O)N1CCN(Cc2cc3nc(-c4cccc5[nH]ncc45)nc(N4CCOCC4)c3s2)CC1 [Pictilisib] (partner 1 µM)
Method in brief: as §1

GW-2580 + Pemetrexed = compound: COC1=CC=C(C=C1)COC2=C(C=C(C=C2)CC3=CN=C(N=C3N)N)OC [GW-2580] + Nc1nc2[nH]cc(CCc3ccc(C(=O)N[C@@H](CCC(=O)O)C(=O)O)cc3)c2c(=O)[nH]1 [Pemetrexed] (partner 0.2 µM)
Method in brief: as §1

Fedratinib + Foretinib = compound: Cc1cnc(Nc2ccc(OCCN3CCCC3)cc2)nc1Nc1cccc(S(=O)(=O)NC(C)(C)C)c1 [Fedratinib] + COc1cc2c(Oc3ccc(NC(=O)C4(C(=O)Nc5ccc(F)cc5)CC4)cc3F)ccnc2cc1OCCCN1CCOCC1 [Foretinib] (partner 0.25 µM)
Method in brief: as §1

Fedratinib + Trametinib = compound: Cc1cnc(Nc2ccc(OCCN3CCCC3)cc2)nc1Nc1cccc(S(=O)(=O)NC(C)(C)C)c1 [Fedratinib] + CC(=O)Nc1cccc(-n2c(=O)n(C3CC3)c(=O)c3c(Nc4ccc(I)cc4F)n(C)c(=O)c(C)c32)c1 [Trametinib] (partner 0.02 µM)
Method in brief: as §1

GW-2580 + Crizotinib = compound: COC1=CC=C(C=C1)COC2=C(C=C(C=C2)CC3=CN=C(N=C3N)N)OC [GW-2580] + C[C@@H](Oc1cc(-c2cnn(C3CCNCC3)c2)cnc1N)c1c(Cl)ccc(F)c1Cl [Crizotinib] (partner 1 µM)
Method in brief: as §1

Cell Line | relative viability (Fedratinib + Pemetrexed; first compound 0.1 µM) | relative viability (Fedratinib + Pemetrexed; first compound 0.3162 µM) | relative viability (Fedratinib + Pemetrexed; first compound 1 µM) | relative viability (Fedratinib + Pictilisib; first compound 0.1 µM) | relative viability (Fedratinib + Pictilisib; first compound 0.3162 µM) | relative viability (Fedratinib + Pictilisib; first compound 1 µM) | relative viability (GW-2580 + Pemetrexed; first compound 0.08 µM) | relative viability (GW-2580 + Pemetrexed; first compound 0.8 µM) | relative viability (GW-2580 + Pemetrexed; first compound 2.53 µM) | relative viability (GW-2580 + Pemetrexed; first compound 8 µM) | relative viability (Fedratinib + Foretinib; first compound 0.1 µM) | relative viability (Fedratinib + Foretinib; first compound 0.3162 µM) | relative viability (Fedratinib + Foretinib; first compound 1 µM) | relative viability (Fedratinib + Trametinib; first compound 0.1 µM) | relative viability (Fedratinib + Trametinib; first compound 0.3162 µM) | relative viability (Fedratinib + Trametinib; first compound 1 µM) | relative viability (GW-2580 + Crizotinib; first compound 0.08 µM) | relative viability (GW-2580 + Crizotinib; first compound 0.8 µM) | relative viability (GW-2580 + Crizotinib; first compound 2.53 µM) | relative viability (GW-2580 + Crizotinib; first compound 8 µM)
H3255 | 0.531 | 0.559 | 0.563 | 0.42 | 0.48 | 0.432 | 0.553 | 0.609 | 0.554 | 0.552 | 0.82 | 0.766 | 0.877 | 0.506 | 0.69 | 0.706 | 0.837 | 0.963 | 0.744 | 0.914
NCI-H647 | 0.172 | 0.146 | 0.134 | 0.377 | 0.477 | 0.309 | 0.16 | 0.185 | 0.16 | 0.229 | 1.16 | 1.23 | 1.16 | 0.521 | 0.493 | 0.366 | 1.28 | 1.47 | 1.05 | 0.957
NCI-H2023 | 0.272 | 0.254 | 0.158 | 0.245 | 0.246 | 0.0814 | 0.344 | 0.279 | 0.238 | 0.205 | 0.8 | 0.873 | 0.643 | 0.588 | 0.626 | 0.488 | 0.61 | 0.829 | 0.59 | 0.623
NCI-H23 | 0.681 | 0.59 | 0.497 | 0.428 | 0.619 | 0.156 | 0.581 | 0.869 | 0.777 | 0.492 | 0.945 | 0.767 | 0.822 | 0.373 | 0.395 | 0.306 | 0.431 | 0.508 | 0.506 | 0.362
NCI-H1944 | 0.665 | 0.643 | 0.624 | 0.333 | 0.344 | 0.302 | 0.621 | 0.638 | 0.556 | 0.512 | 0.837 | 0.962 | 0.824 | 0.448 | 0.422 | 0.42 | 1.21 | 1.01 | 1.4 | 1.03
NCI-H520 | 0.804 | 0.59 | 0.436 | 0.267 | 0.315 | 0.215 | 0.7 | 0.579 | 0.598 | 0.554 | 0.797 | 0.736 | 0.726 | 0.476 | 0.801 | 0.63 | 0.791 | 0.956 | 0.763 | 0.621
NCI-H460 | 0.0603 | 0.0665 | 0.0598 | 0.354 | 0.316 | 0.295 | 0.0622 | 0.0626 | 0.0647 | 0.0595 | 0.793 | 1.05 | 0.997 | 0.163 | 0.156 | 0.061 | 1.07 | 1.14 | 0.819 | 0.839
EKVX | 0.377 | 0.431 | 0.392 | 0.497 | 0.426 | 0.504 | 0.434 | 0.392 | 0.355 | 0.358 | 0.791 | 0.687 | 0.828 | 0.333 | 0.293 | 0.363 | 1.09 | 1.52 | 0.979 | 0.935
NCI-H358 | 0.175 | 0.155 | 0.156 | 0.319 | 0.395 | 0.26 | 0.171 | 0.186 | 0.166 | 0.178 | 0.482 | 0.63 | 0.541 | 0.126 | 0.125 | 0.111 | 0.654 | 0.543 | 0.554 | 0.502
EPLC-272H | 0.389 | 0.272 | 0.343 | 0.257 | 0.35 | 0.0901 | 0.325 | 0.283 | 0.342 | 0.329 | 0.558 | 0.684 | 0.472 | 0.275 | 0.281 | 0.278 | 0.831 | 1.13 | 0.954 | 0.904
NCI-H2126 | 0.592 | 0.657 | 0.626 | 0.489 | 0.514 | 0.391 | 0.664 | 0.709 | 0.63 | 0.612 | 1.07 | 1.06 | 1.08 | 0.493 | 0.582 | 0.541 | 1.06 | 1.06 | 1.01 | 1.04
LXF-289 | 0.89 | 0.872 | 0.884 | 0.811 | 0.747 | 0.694 | 0.883 | 0.96 | 0.881 | 0.85 | 0.963 | 0.958 | 0.981 | 0.676 | 0.61 | 0.621 | 0.846 | 0.818 | 0.775 | 0.705
NCI-H2009 | 0.985 | 0.97 | 1.01 | 0.699 | 0.919 | 0.143 | 1.06 | 1.11 | 0.945 | 0.843 | 1.12 | 1.23 | 1.1 | 0.204 | 0.286 | 0.216 | 1.05 | 1.05 | 1.07 | 1.01
NCI-H2405 | 1.07 | 1.12 | 0.863 | 0.338 | 0.443 | 0.34 | 1.04 | 1.2 | 1.02 | 0.799 | 1.03 | 1.02 | 1.01 | 0.582 | 0.584 | 0.57 | 0.827 | 0.885 | 0.753 | 0.78
NCI-H1755 | 0.506 | 0.416 | 0.449 | 0.385 | 0.458 | 0.399 | 0.677 | 0.474 | 0.429 | 0.43 | 0.937 | 0.977 | 0.874 | 0.822 | 0.696 | 0.73 | 0.852 | 1.03 | 0.818 | 0.71
